According to patent US20220160714A1, “METHODS FOR TREATING COLORECTAL CANCER” (ICAHN SCHOOL OF MEDICINE AT MOUNT SINAI, priority 2019, published 2022):
Where a name gives a salt, the structure may show the parent alone.

Test system: patient's personalized Drosophila model 006.1
Assay: Trametinib combination drug screen (Table 4B, experimental pupae numbers)
Assay type: in vivo
Procedure, shortened: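 Experimental and control embryos (1:2 ratio) from the UAS-006.1/ago and apc RNAi byn-gal4 tub-gal80^ts cross, laid at 22 °C, dispensed onto drug-containing food, then shifted to 25 °C to induce transgene expression. Surviving experimental pupae counted per tube after 2 weeks; DMSO and Trametinib alone as controls.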

[1] = drug screened in combination with trametinib
[2] = drug screened in combination with trametinib, mean of 8 replicates

SMILES	EP (raw experimental pupae numbers), replicate 1 [1]	EP (raw experimental pupae numbers), replicate 2 [1]	EP (raw experimental pupae numbers), replicate 3 [1]	EP (raw experimental pupae numbers), replicate 4 [1]	EP (raw experimental pupae numbers), replicate 5 [1]	EP (raw experimental pupae numbers), replicate 6 [1]	EP (raw experimental pupae numbers), replicate 7 [1]	EP (raw experimental pupae numbers), replicate 8 [1]	EP mean [2]	EP mean (in vivo)
CC(C)N(CCCCOCC(=O)NS(C)(=O)=O)c1cnc(-c2ccccc2)c(-c2ccccc2)n1 [selexipag]	3	0	1	0	2	4	4	2	2	–
CNS(=O)(=O)Cc1ccc2[nH]cc(CCN(C)C)c2c1 [sumatriptan succinate]	0	0	1	1	1	1	1	1	0.75	–
NC(N)=Nc1nc(CSCCC(N)=NS(N)(=O)=O)cs1 [famotidine]	0	0	0	0	1	2	0	2	–	0.625
CC1Cc2ccccc2N1NC(=O)c1ccc(Cl)c(S(N)(=O)=O)c1 (stereo not drawn) [indapamide]	0	0	1	0	2	2	0	4	1.125	–
CN1[C@@H]2CC[C@H]1C[C@@H](OC(c1ccccc1)c1ccccc1)C2 [benztropine]	0	0	4	2	3	1	0	3	1.652	–
CCC[C@@H]1CC(=O)N([C@@H](CC)C(N)=O)C1 [brivaracetam]	0	0	2	0	2	1	1	1	–	0.875
CN(C)C(=N)N=C(N)N [metformin HCl]	0	0	0	1	1	0	2	2	–	0.75
C=CC[C@@H]1/C=C(\C)C[C@H](C)C[C@H](OC)[C@H]2O[C@@](O)(C(=O)C(=O)N3CCCC[C@H]3C(=O)O[C@H](/C(C)=C/[C@@H]3CC[C@@H](O)[C@H](OC)C3)[C@H](C)[C@@H](O)CC1=O)[C@H](C)C[C@@H]2OC [Tacrolimus]	0	0	0	3	0	1	2	0	0.75	–
CN1CCC(=C2c3ccccc3C=Cc3ccccc32)CC1 [cyproheptadine HCl]	0	0	0	0	3	0	1	3	0.875	–
CCCCCCCCCCCCCCCC[N+](C)(C)CCN(Cc1ccc(OC)cc1)c1ncccn1 [thonzonium bromide]	0	0	1	0	2	1	1	3	1	–
